Test: xn = mol fraction of the nth substance listed
Details: for surface tension liquid-gas: Wilhelmy plates; for viscosity / mass density: 101 kPa, Liquid; for viscosity: Capillary tube (Ostwald / Ubbelohde) method; for mass density: Vibrating tube method

CC(=O)[O-].CCn1cc[n+](C)c1 [1-ethyl-3-methylimidazolium acetate] + CC(C)O
Details | mass density [kg/m3] | surface tension liquid-gas [mN/m] | viscosity [mPa·s]
288.15 K, x1 = 0.1 | 852.68 | 23.6 | 5.55
288.15 K, x1 = 0.2 | 901.6 | 25.5 | 8.842
288.15 K, x1 = 0.3 | 941.78 | 27.5 | 14.85
288.15 K, x1 = 0.4 | 976.37 | 29.4 | 24.85
288.15 K, x1 = 0.5 | 1006.01 | 31.5 | 40.69
288.15 K, x1 = 0.5997 | – | 33 | –
288.15 K, x1 = 0.5998 | 1031.55 | – | 64.17
288.15 K, x1 = 0.7 | 1053.83 | 35.1 | 100.7
288.15 K, x1 = 0.7993 | 1072.97 | – | 147.9
288.15 K, x1 = 0.7994 | – | 37.7 | –
288.15 K, x1 = 0.9 | 1090.17 | 41.2 | 212.4
288.15 K, x1 = 1 | 1105.2 | 47.7 | 283.8
298.15 K, x1 = 0.1 | 845.22 | 23.2 | 4.171
298.15 K, x1 = 0.2 | 894.12 | 25.1 | 6.64
298.15 K, x1 = 0.3 | 934.95 | 26.9 | 10.84
298.15 K, x1 = 0.4 | 969.7 | 29 | 17.31
298.15 K, x1 = 0.5 | 999.47 | 31.2 | 26.86
298.15 K, x1 = 0.5997 | – | 32.6 | –
298.15 K, x1 = 0.5998 | 1025.12 | – | 40.4
298.15 K, x1 = 0.7 | 1047.51 | 34.5 | 58.42
298.15 K, x1 = 0.7993 | 1066.77 | – | 81.31
298.15 K, x1 = 0.7994 | – | 37.4 | –
298.15 K, x1 = 0.9 | 1084.05 | 40.9 | 109.9
298.15 K, x1 = 1 | 1099.03 | 47.1 | 139
308.15 K, x1 = 0.1 | 837.68 | 22.5 | 3.204
308.15 K, x1 = 0.2 | 887.04 | 24.6 | 5.142
308.15 K, x1 = 0.3 | 928.14 | 26.6 | 8.186
308.15 K, x1 = 0.4 | 963.07 | 28.3 | 12.6
308.15 K, x1 = 0.5 | 992.98 | 30.5 | 18.61
308.15 K, x1 = 0.5997 | – | 32.1 | –
308.15 K, x1 = 0.5998 | 1018.74 | – | 26.86
308.15 K, x1 = 0.7 | 1041.21 | 34.1 | 36.9
308.15 K, x1 = 0.7993 | 1060.56 | – | 49.32
308.15 K, x1 = 0.7994 | – | 37 | –
308.15 K, x1 = 0.9 | 1077.92 | 40.5 | 63.37
308.15 K, x1 = 1 | 1092.93 | 46.6 | 77.32
318.15 K, x1 = 0.1 | 829.99 | 21.8 | 2.511
318.15 K, x1 = 0.2 | 879.94 | 24.1 | 4.067
318.15 K, x1 = 0.3 | 921.35 | 26.1 | 6.344
318.15 K, x1 = 0.4 | 956.47 | 27.9 | 9.506
318.15 K, x1 = 0.5 | 986.52 | 29.9 | 13.61
318.15 K, x1 = 0.5997 | – | 31.6 | –
318.15 K, x1 = 0.5998 | 1012.39 | – | 18.87
318.15 K, x1 = 0.7 | 1034.96 | 33.7 | 25.08
318.15 K, x1 = 0.7993 | 1054.38 | – | 32.33
318.15 K, x1 = 0.7994 | – | 36.8 | –
318.15 K, x1 = 0.9 | 1071.81 | 40.2 | 40.36
318.15 K, x1 = 1 | 1086.86 | 46.1 | 47.37
328.15 K, x1 = 0.1 | 822.14 | 20.8 | 1.998
328.15 K, x1 = 0.2 | 872.8 | 23.5 | 3.272
328.15 K, x1 = 0.3 | 914.57 | 25.5 | 5.049
328.15 K, x1 = 0.4 | 949.91 | 27.4 | 7.378
328.15 K, x1 = 0.5 | 980.11 | 29.6 | 10.28
328.15 K, x1 = 0.5997 | – | 31.5 | –
328.15 K, x1 = 0.5998 | 1006.1 | – | 13.77
328.15 K, x1 = 0.7 | 1028.76 | 33.4 | 17.83
328.15 K, x1 = 0.7993 | 1048.25 | – | 22.39
328.15 K, x1 = 0.7994 | – | 36.4 | –
328.15 K, x1 = 0.9 | 1065.74 | 40 | 27.23
328.15 K, x1 = 1 | 1080.82 | 45.9 | 31.29
338.15 K, x1 = 0.1 | 814.08 | 20.1 | 1.617
338.15 K, x1 = 0.2 | 865.6 | 22.6 | 2.683
338.15 K, x1 = 0.3 | 907.78 | 25 | 4.086
338.15 K, x1 = 0.4 | 943.37 | 26.9 | 5.876
338.15 K, x1 = 0.5 | 973.74 | 29.1 | 8.019
338.15 K, x1 = 0.5997 | – | 30.7 | –
338.15 K, x1 = 0.5998 | 999.84 | – | 10.46
338.15 K, x1 = 0.7 | 1022.6 | 32.9 | 13.23
338.15 K, x1 = 0.7993 | 1042.17 | – | 16.22
338.15 K, x1 = 0.7994 | – | 36 | –
338.15 K, x1 = 0.9 | 1059.72 | 39.3 | 19.37
338.15 K, x1 = 1 | 1074.83 | 45.4 | 21.85

CC(=O)[O-].CCn1cc[n+](C)c1 [1-ethyl-3-methylimidazolium acetate] + CCCO
Details | mass density [kg/m3] | surface tension liquid-gas [mN/m] | viscosity [mPa·s]
288.15 K, x1 = 0.1017 | 869.4 | 25.8 | 4.866
288.15 K, x1 = 0.2004 | 915.48 | 27.4 | 7.99
288.15 K, x1 = 0.3001 | 953.82 | 29.7 | 13.36
288.15 K, x1 = 0.3998 | 986.05 | 31.7 | 22.26
288.15 K, x1 = 0.4997 | 1013.52 | 33.7 | 36.38
288.15 K, x1 = 0.5996 | 1037.16 | 35.6 | 57.47
288.15 K, x1 = 0.6998 | 1057.65 | 37.7 | 90.15
288.15 K, x1 = 0.8002 | 1075.6 | 40.2 | 135
288.15 K, x1 = 0.8991 | 1090.97 | 43.2 | 196.8
288.15 K, x1 = 1 | 1105.2 | 47.7 | 283.8
298.15 K, x1 = 0.1017 | 862.03 | 25.2 | 3.822
298.15 K, x1 = 0.2004 | 908.4 | 26.5 | 6.163
298.15 K, x1 = 0.3001 | 946.94 | 29.2 | 9.963
298.15 K, x1 = 0.3998 | 979.34 | 31 | 15.81
298.15 K, x1 = 0.4997 | 1006.95 | 33.1 | 24.44
298.15 K, x1 = 0.5996 | 1030.7 | 34.7 | 36.48
298.15 K, x1 = 0.6998 | 1051.29 | 37.2 | 53.65
298.15 K, x1 = 0.8002 | 1069.33 | 39.7 | 75.63
298.15 K, x1 = 0.8991 | 1084.89 | 42.7 | 103.9
298.15 K, x1 = 1 | 1099.03 | 47.1 | 139
308.15 K, x1 = 0.1017 | 854.63 | 24.7 | 3.038
308.15 K, x1 = 0.2004 | 901.33 | 25.8 | 4.878
308.15 K, x1 = 0.3001 | 940.1 | 28.7 | 7.657
308.15 K, x1 = 0.3998 | 972.66 | 30.7 | 11.7
308.15 K, x1 = 0.4997 | 1000.41 | 32.7 | 17.3
308.15 K, x1 = 0.5996 | 1024.28 | 34.2 | 24.75
308.15 K, x1 = 0.6998 | 1044.96 | 36.6 | 34.59
308.15 K, x1 = 0.8002 | 1063.09 | 39.2 | 46.49
308.15 K, x1 = 0.8991 | 1078.75 | 42.2 | 60.98
308.15 K, x1 = 1 | 1092.93 | 46.6 | 77.32
318.15 K, x1 = 0.1017 | 847.19 | 23.9 | 2.461
318.15 K, x1 = 0.2004 | 894.27 | 25.3 | 3.952
318.15 K, x1 = 0.3001 | 933.29 | 28.5 | 6.043
318.15 K, x1 = 0.3998 | 966.03 | 30.2 | 8.961
318.15 K, x1 = 0.4997 | 993.92 | 32.2 | 12.78
318.15 K, x1 = 0.5996 | 1017.9 | 33.3 | 17.58
318.15 K, x1 = 0.6998 | 1038.68 | 36.1 | 23.68
318.15 K, x1 = 0.8002 | 1056.89 | 38.8 | 30.86
318.15 K, x1 = 0.8991 | 1072.62 | 41.8 | 37.98
318.15 K, x1 = 1 | 1086.86 | 46.1 | 47.37
328.15 K, x1 = 0.1017 | 839.68 | 23 | 2.018
328.15 K, x1 = 0.2004 | 887.21 | 25 | 3.268
328.15 K, x1 = 0.3001 | 926.51 | 27.9 | 4.878
328.15 K, x1 = 0.3998 | 959.44 | 30 | 7.05
328.15 K, x1 = 0.4997 | 987.48 | 31.7 | 9.766
328.15 K, x1 = 0.5996 | 1011.58 | 33.1 | 13.01
328.15 K, x1 = 0.6998 | 1032.45 | 35.8 | 17.05
328.15 K, x1 = 0.8002 | 1050.74 | 38.1 | 21.36
328.15 K, x1 = 0.8991 | 1066.53 | 41.4 | 25.84
328.15 K, x1 = 1 | 1080.82 | 45.9 | 31.29
338.15 K, x1 = 0.1017 | 832.08 | 22.3 | 1.68
338.15 K, x1 = 0.2004 | 880.13 | 24 | 2.686
338.15 K, x1 = 0.3001 | 919.75 | 27.3 | 3.946
338.15 K, x1 = 0.3998 | 952.89 | 29.5 | 5.672
338.15 K, x1 = 0.4997 | 981.08 | 31.3 | 7.675
338.15 K, x1 = 0.5996 | 1005.3 | 32.6 | 9.978
338.15 K, x1 = 0.6998 | 1026.26 | 35.5 | 12.68
338.15 K, x1 = 0.8002 | 1044.63 | 37.9 | 15.57
338.15 K, x1 = 0.8991 | 1060.48 | 41.2 | 18.49
338.15 K, x1 = 1 | 1074.83 | 45.4 | 21.85
348.15 K, x1 = 0.1017 | 824.34 | 21.5 | 1.413
348.15 K, x1 = 0.2004 | 873.02 | 23.6 | 2.26
348.15 K, x1 = 0.3001 | 912.99 | 27.1 | 3.292
348.15 K, x1 = 0.3998 | 946.36 | 29.3 | 4.651
348.15 K, x1 = 0.4997 | 974.71 | 30.8 | 6.175
348.15 K, x1 = 0.5996 | 999.06 | 31.8 | 7.866
348.15 K, x1 = 0.6998 | 1020.12 | 34.5 | 9.81
348.15 K, x1 = 0.8002 | 1038.57 | 37.6 | 11.81
348.15 K, x1 = 0.8991 | 1054.49 | 41 | 13.78
348.15 K, x1 = 1 | 1068.88 | 45.1 | 16.01

Reference: the NIST ThermoML archive (doi:10.1021/acs.jced.5b01023)
